According to US11389382B2, “Biphase chemical peel” (L'OREAL, priority 2019, dated 2022):

Assays:
[1] = tested on: stratum corneum samples; experiment: In vitro stratum corneum comparison of ΔT using differential scanning calorimetry (lipid disorganization); settings: DSC 20° C. to 120° C. at 5° C./min; 0.1 g/sample on SC surface for 15 min in 75% RH
Experimental: In Vitro Stratum Corneum Comparison of ΔT using differential scanning calorimetry (DSC) to characterize the stability of a protein or other biomolecule directly in its native form. It does this by measuring the heat change associated with the molecule's thermal denaturation when heated at a constant rate.
Studies were conducted with each of the exemplified inventive and comparative compositions, to evaluate effect of the compositions on the stratum corneum. Inventive 1 and Inventive 2 compositions and the Comparative composition together with Jessner peel, glycolic acid alone and isopropyl myristate controls were evaluated on SC samples according to the following procedure. Stratum corneum samples were equilibrated at 75% RH overnight. Inventive and Comparative Compositions and control treatments applied on SC surface (0.1 g/sample) for 15 min in 75% RH. The SC surface was wiped clean and rinsed with DI water. Allow to dry in 75% RH overnight. The DSC profile was measured from 20° C. to 120° C. at 5° C./min.

[2] = tested on: forearm skin; experiment: In vivo tape stripping, protein removed, Micro BCA assay (efficacy of desquamation); parameters: species or system human; settings: tape stripping of forearm after 15 min treatment; 4 tape strippings per region, average of 3 regions, single person
Experimental: Example 5: In Vivo Tape Stripping Protein Removed Using a Micro […] Assay to Characterize the Efficacy of Desquamation
Studies were conducted with each of the exemplified inventive and comparative compositions, to evaluate effect of the compositions on live skin tape stripping samples. Inventive 1 and Inventive 2 compositions and the Comparative composition together with Jessner peel, glycolic acid alone and isopropyl myristate controls were evaluated according to the following procedure. Tape strips of skin areas tested with each composition were obtained, with 4 tape strippings per region; Average of 3 regions; Experiment done on single person rinse the forearm with distilled water and dry it for 3 minutes; Wipe with the peel test composition saturated cotton pads on the designated area and dry it for 15 min; Rinse the forearm with the water and dry the moisture by placing a tissue and patting the tissue. Air dry it for 3 min; Perform the tape stripping—(1) put the tape on, (2) place the metal plate on top of the tape, and (3) put weight (2 kg) for 5 seconds.—3 tapes (3 different regions of the skin)/peel test composition×4 tape stripping; Each tape (1.4 cm) was inserted in a 2 mL Eppendorf tube and 500 uL of PBS was added to each tube; Shaking condition ([…]) for 2 hours @ room temperature; Sonication for 20 min in ice water; Micro BCA assay.

[3] = acute oral toxicity, mutagenicity, skin irritation, skin sensitization, phototoxicity; cited from earlier work

Compound | ΔT (measurement of lipid disorganization) [1] | Protein Content (protein removed) [2] [μg/cm^2] | adverse effects in basic toxicological tests [3]
O=C(O)CO [Glycolic Acid Control, glycolic acid] | 5.94 ± 0.41 | 1.65 ± 0.02 | –
CCCCCCCCCCCCCC(=O)OC(C)C [Isopropyl myristate control, isopropyl myristate] | 6.40 ± 0.1 | 2.4 ± 0.88 | –
CC(c1ccccc1)c1ccc(O)cc1O (centres unmarked) [Phenylethyl resorcinol] | – | – | not shown adverse effects
